Legend:
Assay in all cases: yeast two-hybrid (GAL4), COR-dependent growth
Type in all cases: cell-based
AtJAZ9 and FaCOI1 = target: T1, AtJAZ9 and FaCOI1 (Fragaria x ananassa; Arabidopsis thaliana, UniProt A0A290U3W5+Q8W4J8); conditions: 50 µM COR; 28 °C, 5 days; JAZ co-receptor
T1 construct: gene COI1; mixed-species complex; Saccharomyces cerevisiae AH109

AtCOI1 with AtJAZ1 = target: T2, AtCOI1 with AtJAZ1 (Arabidopsis thaliana, UniProt O04197+Q9LMA8); conditions: 50 µM COR; 28 °C, 5 days; JAZ co-receptor
T2 construct: gene COI1; Saccharomyces cerevisiae AH109; degron LPIARR
T2 sequence (Q9LMA8 whole entry): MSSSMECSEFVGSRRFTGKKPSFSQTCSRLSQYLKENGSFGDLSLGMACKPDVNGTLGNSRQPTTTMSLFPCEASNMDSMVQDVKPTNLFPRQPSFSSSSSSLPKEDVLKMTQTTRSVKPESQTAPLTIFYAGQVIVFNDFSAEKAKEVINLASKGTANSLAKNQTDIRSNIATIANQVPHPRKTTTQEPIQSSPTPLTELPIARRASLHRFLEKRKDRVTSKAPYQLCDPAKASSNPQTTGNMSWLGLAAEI
T2 sequence (O04197 whole entry): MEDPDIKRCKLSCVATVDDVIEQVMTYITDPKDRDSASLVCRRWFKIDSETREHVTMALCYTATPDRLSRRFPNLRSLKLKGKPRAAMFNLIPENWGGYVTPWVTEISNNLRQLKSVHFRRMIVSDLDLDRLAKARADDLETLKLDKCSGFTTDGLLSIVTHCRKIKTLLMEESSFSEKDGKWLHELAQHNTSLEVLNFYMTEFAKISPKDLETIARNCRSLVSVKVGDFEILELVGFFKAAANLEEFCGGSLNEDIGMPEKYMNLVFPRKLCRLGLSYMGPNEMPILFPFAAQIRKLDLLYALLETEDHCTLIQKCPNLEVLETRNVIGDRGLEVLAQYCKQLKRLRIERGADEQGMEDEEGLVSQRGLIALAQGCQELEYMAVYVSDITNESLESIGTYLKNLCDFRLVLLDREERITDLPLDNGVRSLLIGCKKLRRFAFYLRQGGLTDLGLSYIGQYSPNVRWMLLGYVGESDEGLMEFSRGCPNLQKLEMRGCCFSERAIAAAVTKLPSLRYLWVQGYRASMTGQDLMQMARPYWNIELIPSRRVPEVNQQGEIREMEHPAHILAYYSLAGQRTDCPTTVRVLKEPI

AtCOI1 with AtJAZ9 = target: T3, AtCOI1 with AtJAZ9 (Arabidopsis thaliana, UniProt O04197+Q8W4J8); conditions: 50 µM COR; 28 °C, 5 days; JAZ co-receptor
T3 construct: gene COI1; Saccharomyces cerevisiae AH109; degron VPQARK
T3 sequence (O04197 whole entry): as above
T3 sequence (Q8W4J8 whole entry): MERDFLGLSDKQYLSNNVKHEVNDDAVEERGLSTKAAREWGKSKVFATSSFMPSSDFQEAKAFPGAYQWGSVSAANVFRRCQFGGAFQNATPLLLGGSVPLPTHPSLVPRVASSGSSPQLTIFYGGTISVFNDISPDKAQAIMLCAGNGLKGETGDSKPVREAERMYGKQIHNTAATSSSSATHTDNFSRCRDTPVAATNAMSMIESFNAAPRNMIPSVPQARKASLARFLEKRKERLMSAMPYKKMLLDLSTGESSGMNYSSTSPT

FaCOI1–FaJAZ10 = target: T4, FaCOI1–FaJAZ10 (Fragaria x ananassa, UniProt A0A290U3W5+A0A290U478); conditions: 50 µM COR; 28 °C, 5 days; SD-Leu-Trp-His selection; JAZ co-receptor
T4 construct: gene COI1; Saccharomyces cerevisiae AH109; degron LPIARR
T4 sequence (A0A290U3W5 entry or part of it): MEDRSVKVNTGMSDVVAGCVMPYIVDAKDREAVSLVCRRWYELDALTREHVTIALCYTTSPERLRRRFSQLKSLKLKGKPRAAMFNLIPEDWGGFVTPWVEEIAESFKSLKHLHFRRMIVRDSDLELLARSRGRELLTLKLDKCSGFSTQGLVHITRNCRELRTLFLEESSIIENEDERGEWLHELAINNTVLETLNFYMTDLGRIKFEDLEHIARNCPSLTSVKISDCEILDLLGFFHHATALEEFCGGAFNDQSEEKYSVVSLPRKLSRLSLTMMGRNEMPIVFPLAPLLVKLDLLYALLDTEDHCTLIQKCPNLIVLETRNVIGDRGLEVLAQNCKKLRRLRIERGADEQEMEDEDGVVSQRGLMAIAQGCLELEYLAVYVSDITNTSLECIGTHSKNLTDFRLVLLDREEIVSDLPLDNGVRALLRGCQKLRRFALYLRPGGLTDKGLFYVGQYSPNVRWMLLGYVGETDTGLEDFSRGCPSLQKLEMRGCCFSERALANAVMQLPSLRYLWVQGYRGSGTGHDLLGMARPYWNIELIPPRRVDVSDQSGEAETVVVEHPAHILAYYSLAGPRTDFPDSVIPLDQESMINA
T4 sequence (A0A290U478 entry or part of it): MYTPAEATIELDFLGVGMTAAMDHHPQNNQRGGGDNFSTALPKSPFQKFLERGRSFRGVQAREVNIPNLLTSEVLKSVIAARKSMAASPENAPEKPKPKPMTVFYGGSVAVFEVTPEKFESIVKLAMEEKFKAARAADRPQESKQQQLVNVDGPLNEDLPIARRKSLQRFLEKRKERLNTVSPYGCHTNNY

FaCOI1–FaJAZ1 = target: T5, FaCOI1–FaJAZ1 (Fragaria x ananassa, UniProt A0A290U0M9+A0A290U3W5); conditions: 50 µM COR; 28 °C, 5 days; growth on SD-Leu-Trp-His and SD-Leu-Trp-His-Ade; JAZ co-receptor
T5 construct: gene COI1; Saccharomyces cerevisiae AH109; native degron IPMQRK
T5 sequence (A0A290U0M9 entry or part of it): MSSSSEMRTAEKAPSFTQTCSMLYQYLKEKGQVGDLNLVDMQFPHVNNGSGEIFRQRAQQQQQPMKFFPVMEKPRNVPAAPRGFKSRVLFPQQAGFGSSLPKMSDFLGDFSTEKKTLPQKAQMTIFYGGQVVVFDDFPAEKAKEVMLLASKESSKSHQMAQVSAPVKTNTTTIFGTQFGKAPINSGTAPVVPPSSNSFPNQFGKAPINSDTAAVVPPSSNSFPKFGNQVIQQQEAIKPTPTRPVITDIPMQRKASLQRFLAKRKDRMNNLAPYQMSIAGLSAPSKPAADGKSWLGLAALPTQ
T5 sequence (A0A290U3W5 entry or part of it): as the sequence (A0A290U3W5 entry or part of it) above

AtCOI1–FaJAZ10 = target: T6, AtCOI1–FaJAZ10 (Arabidopsis thaliana; Fragaria x ananassa, UniProt A0A290U478+O04197); conditions: 50 µM COR; 28 °C, 5 days; JAZ co-receptor
T6 construct: gene COI1; mixed-species complex; Saccharomyces cerevisiae AH109
T6 sequence (O04197 whole entry): as the sequence (O04197 whole entry) above
T6 sequence (A0A290U478 entry or part of it): as the sequence (A0A290U478 entry or part of it) above

AtCOI1–FaJAZ1 = target: T7, AtCOI1–FaJAZ1 (Arabidopsis thaliana; Fragaria x ananassa, UniProt A0A290U0M9+O04197); conditions: 50 µM COR; 28 °C, 5 days; JAZ co-receptor
T7 construct: gene COI1; mixed-species complex; Saccharomyces cerevisiae AH109
T7 sequence (A0A290U0M9 entry or part of it): as the sequence (A0A290U0M9 entry or part of it) above
T7 sequence (O04197 whole entry): as the sequence (O04197 whole entry) above

T1 sequence (Q8W4J8 whole entry): as the sequence (Q8W4J8 whole entry) above
T1 sequence (A0A290U3W5 entry or part of it): as the sequence (A0A290U3W5 entry or part of it) above

CC[C@H]1C=C(C(=O)N[C@@]2(C(=O)O)C[C@@H]2CC)[C@H]2CCC(=O)[C@H]2C1 [coronatine]
yeast two-hybrid (GAL4), COR-dependent growth (AtJAZ9 and FaCOI1): only a positive interaction between AtJAZ9 and FaCOI1 promoted by COR was observed | yeast two-hybrid (GAL4), COR-dependent growth (AtCOI1 with AtJAZ1): AtJAZ1 and AtJAZ9 interacted with AtCOI1 which was observed by colony growth | yeast two-hybrid (GAL4), COR-dependent growth (AtCOI1 with AtJAZ9): AtJAZ1 and AtJAZ9 interacted with AtCOI1 which was observed by colony growth | yeast two-hybrid (GAL4), COR-dependent growth (FaCOI1–FaJAZ10): FaJAZ1 and FaJAZ10 interacted with FaCOI1 in a COR-dependent manner | yeast two-hybrid (GAL4), COR-dependent growth (FaCOI1–FaJAZ1): FaJAZ1 and FaJAZ10 interacted with FaCOI1 in a COR-dependent manner | yeast two-hybrid (GAL4), COR-dependent growth (AtCOI1–FaJAZ10): both FaJAZ1 and FaJAZ10 interacted with AtCOI1 in restrictive media and supplemented with COR | yeast two-hybrid (GAL4), COR-dependent growth (AtCOI1–FaJAZ1): both FaJAZ1 and FaJAZ10 interacted with AtCOI1 in restrictive media and supplemented with COR
